This note sets out measurements from article PMC5105127, “16-nor Limonoids from Harrisonia perforata as promising selective 11β-HSD1 inhibitors” (Scientific Reports, 2016).

By inhibition is commonly meant how much of the control response was suppressed. The term pIC50 denotes the IC50 on a negative log10 scale, so that one unit is a factor of ten.

Holding throughout (format): biochemical
One assay has as its target T1, human 11β-HSD1 (Homo sapiens, UniProt P28845).
T1 construct: The full-length cDNAs of human or murine11β-HSD1 and 11β-HSD2 were isolated from the cDNA libraries; made in house; host or cells: HEK-293, stably transfected with a pcDNA3 plasmid; microsomal fraction
Put plainly: scintillation proximity assay (SPA), human 11β-HSD1. As to the method:
(§1) The inhibitory activity of compounds 1–3 on murine and human 11β-HSD1 was evaluated using the scintillation proximity assay (SPA)[25]. […] We further used the intact cell transfected with human HSD11B1 and HSD11B2 to screen their bioactivities.
(§2) The inhibitory activities of the compounds on human or mouse 11β-HSD1 and 11β-HSD2 were determined using the scintillation proximity assay (SPA). The full-length cDNAs of human or murine11β-HSD1 and 11β-HSD2 were isolated from the cDNA libraries provided by NIH Mammalian Gene Collection. The cDNAs were cloned into pcDNA3 expression vectors. HEK-293 cells were transfected with the pcDNA3-derived expression plasmid and selected by cultivation in the presence of 700 μg/ml of G418. The microsomal fraction overexpressing 11β-HSD1 or 11β-HSD2 was prepared from the HEK-293 cells, which were stably transfected with 11β-HSD1 or 11β-HSD2. The fraction was then used as the enzyme source for SPA. Microsomes containing human or mouse 11β-HSD1 were incubated with NADPH and [^3H] cortisone. The product, [^3H] cortisol, was specifically captured by a monoclonal antibody coupled to protein A-coated SPA beads. The 11β-HSD2 screening was performed by incubating 11β-HSD2 microsomes with [^3H] cortisol and NAD + and monitoring substrate disappearance. […] IC50 (X + SD, n = 2) values were calculated by using Prism Version 4 (GraphPad Software, SanDiego, CA).

A further assay addresses T2, murine 11β-HSD2 (Mus musculus, UniProt P51661).
T2 construct: The full-length cDNAs of human or murine11β-HSD1 and 11β-HSD2 were isolated from the cDNA libraries; made in house; host or cells: HEK-293, stably transfected with a pcDNA3 plasmid; microsomal fraction
T2 sequence (P51661 1-386): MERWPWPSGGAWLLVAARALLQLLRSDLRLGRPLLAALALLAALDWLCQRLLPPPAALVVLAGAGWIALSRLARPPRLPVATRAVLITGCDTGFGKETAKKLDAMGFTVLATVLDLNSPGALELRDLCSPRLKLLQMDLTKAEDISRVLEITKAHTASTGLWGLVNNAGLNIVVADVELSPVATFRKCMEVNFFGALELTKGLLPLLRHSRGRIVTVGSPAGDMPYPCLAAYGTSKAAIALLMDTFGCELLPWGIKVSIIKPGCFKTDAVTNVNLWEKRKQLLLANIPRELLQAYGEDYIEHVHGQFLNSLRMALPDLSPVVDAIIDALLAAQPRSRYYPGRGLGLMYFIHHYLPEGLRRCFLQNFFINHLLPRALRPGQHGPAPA
Put plainly: scintillation proximity assay (SPA), murine 11β-HSD2. On the procedure: as §1, §2

Another assay addresses T3, murine 11β-HSD1 (Mus musculus, UniProt P50172).
T3 construct: The full-length cDNAs of human or murine11β-HSD1 and 11β-HSD2 were isolated from the cDNA libraries; made in house; host or cells: HEK-293, stably transfected with a pcDNA3 plasmid; microsomal fraction
Put plainly: scintillation proximity assay (SPA), murine 11β-HSD1. As to the method:
The inhibitory activity of compounds 1–3 on murine and human 11β-HSD1 was evaluated using the scintillation proximity assay (SPA)[25]. […] We further used the intact cell transfected with human HSD11B1 and HSD11B2 to screen their bioactivities. […] The inhibitory activities of the compounds on human or mouse 11β-HSD1 and 11β-HSD2 were determined using the scintillation proximity assay (SPA). The full-length cDNAs of human or murine11β-HSD1 and 11β-HSD2 were isolated from the cDNA libraries provided by NIH Mammalian Gene Collection. The cDNAs were cloned into pcDNA3 expression vectors. HEK-293 cells were transfected with the pcDNA3-derived expression plasmid and selected by cultivation in the presence of 700 μg/ml of G418. The microsomal fraction overexpressing 11β-HSD1 or 11β-HSD2 was prepared from the HEK-293 cells, which were stably transfected with 11β-HSD1 or 11β-HSD2. The fraction was then used as the enzyme source for SPA. Microsomes containing human or mouse 11β-HSD1 were incubated with NADPH and [^3H] cortisone. The product, [^3H] cortisol, was specifically captured by a monoclonal antibody coupled to protein A-coated SPA beads. The 11β-HSD2 screening was performed by incubating 11β-HSD2 microsomes with [^3H] cortisol and NAD + and monitoring substrate disappearance. All tests were done twice with glycyrrhizinic acid as a positive control.
In general terms: In a scintillation proximity assay essentially only radioactivity close to the scintillant gives light.

In a further assay the test system is human 11β-HSD2. Put plainly: scintillation proximity assay (SPA), human 11β-HSD2. Conditions: human 11β-HSD2 vs human 11β-HSD1. As to the method:
as §1, §2

Molecules are shown by their SMILES. pIC50: −log10 of the molar value. Read-outs that look alike come from different tables or passages of the source.

T3 sequence (P50172 whole entry): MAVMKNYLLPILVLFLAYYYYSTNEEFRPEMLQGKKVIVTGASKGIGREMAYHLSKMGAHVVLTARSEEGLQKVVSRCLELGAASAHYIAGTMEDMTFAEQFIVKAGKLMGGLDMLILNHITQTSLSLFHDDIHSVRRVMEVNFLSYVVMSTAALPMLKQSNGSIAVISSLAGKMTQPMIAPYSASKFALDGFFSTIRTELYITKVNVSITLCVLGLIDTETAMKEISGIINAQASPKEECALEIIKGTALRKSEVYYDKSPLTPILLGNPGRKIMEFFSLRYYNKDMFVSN
T1 sequence (P28845 whole entry): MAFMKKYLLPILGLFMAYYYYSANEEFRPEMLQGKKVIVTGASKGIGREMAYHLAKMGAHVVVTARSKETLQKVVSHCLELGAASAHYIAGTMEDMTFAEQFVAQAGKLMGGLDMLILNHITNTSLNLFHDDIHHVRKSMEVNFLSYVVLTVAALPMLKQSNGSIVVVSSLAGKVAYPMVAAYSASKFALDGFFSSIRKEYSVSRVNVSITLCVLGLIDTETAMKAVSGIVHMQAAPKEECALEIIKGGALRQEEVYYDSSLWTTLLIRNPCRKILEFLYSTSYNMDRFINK

On to `CC1(C)OC(=O)C=C[C@]2(C)O[C@@]3(CC4=C5C(=O)O[C@@H](c6ccoc6)[C@]5(C)CC[C@H]4O3)C[C@H]12` [Compound 1, Harperspinoid A], for which, on human 11β-HSD1 (in words), the “inhibitory activity against human 11β-HSD1 enzyme” value was “low inhibitory activity”. The “inhibition of murine 11β-HSD2 activity” value at murine 11β-HSD2 (at 1 mM) is “did not inhibit the enzyme at all”. For the same compound, the “SI (selectivity against murine 11β-HSD2)” value at murine 11β-HSD2 (murine 11β-HSD2 vs murine 11β-HSD1) is given as over 1661. Also, at murine 11β-HSD1 (0.1 μM, read-out: Inhibition rate on murine 11β-HSD1), the inhibition at 0.1 µM was found to be 22.8%. Further, the inhibition at 0.3 µM on murine 11β-HSD1 (0.3 μM, read-out: Inhibition rate on murine 11β-HSD1) amounted to 35.1%. For the same compound, the inhibition at 1 µM on murine 11β-HSD1 (1 μM, read-out: Inhibition rate on murine 11β-HSD1) stood at 55.8%. At murine 11β-HSD1 (3 μM, read-out: Inhibition rate on murine 11β-HSD1), the inhibition at 3 µM worked out at 79.4%. For the same compound, at murine 11β-HSD1 (10 μM, read-out: Inhibition rate on murine 11β-HSD1), the inhibition at 10 µM was determined as 90.5%. At murine 11β-HSD1 (SPA, text: intact CHOP cells transfected with murine HSD11B1, read-out: IC50, inhibition of murine 11β-HSD1), the pIC50 was 6.22.

As to `CC1=CC23C(=O)OC(C)(C)C1CC2(O)CC1=C2C(=O)OC(c4ccoc4)C2(C)CCC13` (centres unmarked) [Compound 3, Harperforin G], on human 11β-HSD1 (SPA, text: intact cell transfected with human HSD11B1, whole cell assay, read-out: IC50, inhibition of human 11β-HSD1), the pIC50 is 6.24. Also, the “SI (selectivity against human 11β-HSD2)” value in the assay with human 11β-HSD2 is given as over 174.

Consider `CC1(C)[C@@H](O[C@H]2O[C@H](C(=O)O)[C@@H](O)[C@H](O)[C@H]2O[C@@H]2O[C@H](C(=O)O)[C@@H](O)[C@H](O)[C@H]2O)CC[C@]2(C)[C@H]3C(=O)C=C4[C@@H]5C[C@@](C)(C(=O)O)CC[C@]5(C)CC[C@@]4(C)[C@]3(C)CC[C@@H]12` [Glycyrrhizic acid, reference compound], for which the inhibition at 0.001 µM at murine 11β-HSD1 (1 nM, read-out: Inhibition rate on murine 11β-HSD1) turned out to be 21.2%. On murine 11β-HSD1 (10 nM, read-out: Inhibition rate on murine 11β-HSD1), the inhibition at 0.01 µM came out at 51.9%. Besides, at murine 11β-HSD1 (100 nM, read-out: Inhibition rate on murine 11β-HSD1), the inhibition at 0.1 µM is 86.8%.
